In brackets after ≈: the same amount, converted by molar mass. Where two headings read alike, the source gives them in different places.

The values below come from patent publication US7176313B2, “Anti acid-fast bacterial agent containing pyridonecarboxylic acids as active ingredient” (Daiichi Pharmaceutical Co., Ltd., priority 2000, dated 2007).

A short description of series [1]: Mouse acute toxicity test. It is filed as in vivo, Male Slc:ddY mice. Particulars: intravenous. How it is done: Mouse Acute Toxicity Test
Male Slc:ddY mice at age of 5-weeks were used as test animals. For dissolving the compounds, 0.1 mol/l NaOH (in saline) was used. Mice were administered intravenously at a rate of 0.1 ml/30 seconds at a dosing volume of 10 ml/kg.

Series [2] has as its system Mycobacterium tuberculosis (RFP sensitive). The experiment in a line: Antibacterial activity (MIC) against Mycobacterium tuberculosis (RFP sensitive). The following applies: Mycobacterium tuberculosis, Table 6 (series 2), read-out: MIC. The class given is cell-based.
The subject of the next series is M. avium. The experiment in a line: Antibacterial activity (MIC) against M. avium. Particulars: Mycobacterium avium, Table 4 (series 2), read-out: MIC. The class given is cell-based, Mycobacterium avium. The protocol:
Antibacterial activity of the compounds of the invention was measured in accordance with the method described in the literature of Antimicrob. […] In the tables, “OFLX” is an abbreviation of “OFLOXAIN”.

Another series relates to reticulocytes (RC). The experiment in a line: Peripheral blood micronucleus test. It is filed as in vivo, Male Slc:ddY mice. The following applies: mice, intravenous. The protocol: Peripheral Blood Micronucleus Test
Used animals and administration method are similar to those in the mouse acute toxicity test. Samples were prepared by collecting 5 μl each of blood sample from the tail vein at 24 and 48 hours after the administration, dropping the blood on a slide at which 0.1% acridine orange solution had been applied in advance, sealing the slide with a cover glass immediately, and allowing it to stand in a refrigerator for 24 hours.

The next series concerns M. intracellulare. The experiment in a line: Antibacterial activity (MIC) against M. intracellulare. The class given is cell-based, Mycobacterium intracellulare. The following applies: Mycobacterium intracellulare, Table 4 (series 2), read-out: MIC. The protocol: Antibacterial activity of the compounds of the invention was measured in accordance with the method described in the literature of Antimicrob. Agents and Chemother., 38, 2877 (1994), and the results are shown in Tables 3 to 8 in terms of MIC (μg/ml). In the tables, “OFLX” is an abbreviation of “OFLOXAIN”.

A word on the MIC: it is the least concentration at which growth counts as inhibited. Take `COc1c(N2C[C@@H](C)N[C@@H](C)C2)c(F)cc2c(=O)c(C(=O)O)cn([C@@H]3C[C@@H]3F)c12` [Compd. 16, 7-(3,5-cis-Dimethylpiperazin-1-yl)-6-fluoro-1-[2-(S)-fluoro-1-(R)-cyclopropyl]-1,4-dihydro-8-methoxy-4-oxoquinoline-3-carboxylic acid]: the “survival of mice after administration” value in series [1] (text summary of Table 9) is recorded as “all mice were survived”. The “Mortality (dead/ test)” value in series [1] (mice, 150 mg/kg) was 0/5. In addition, in series [1] (mice, text summary of Table 9), the acute toxicity result is given as “relatively weak”. For the same compound, the MIC was 0.12 µg/mL (≈ 0.295 µM) in series [2] (H37RV, M. tuberculosis H37Rv); 0.12 µg/mL (≈ 0.295 µM) in series [2] (M. tuberculosis Kurono); 0.12 µg/mL (≈ 0.295 µM) in series [2] (M. tuberculosis No. 40); 0.03 µg/mL (≈ 0.0736 µM) in series [2] (M. tuberculosis No. 41); 1 µg/mL (≈ 2.45 µM) in series [2] (M. tuberculosis No. 43); 0.12 µg/mL (≈ 0.295 µM) in series [2] (M. tuberculosis No. 68). The MIC in the series with M. avium (M. avium N-357) stood at 0.5 µg/mL (≈ 1.23 µM); in the series with M. avium (M. avium N-444), 1 µg/mL (≈ 2.45 µM); in the series with M. avium (M. avium N-458) it was 0.5 µg/mL (≈ 1.23 µM); with M. avium (M. avium N-472), 4 µg/mL (≈ 9.82 µM); in the series on M. intracellulare (M. intracellulare N-294) it was 1 µg/mL (≈ 2.45 µM); in the series with M. intracellulare (M. intracellulare N-313), 0.12 µg/mL (≈ 0.295 µM). For the same compound, the MIC in the series with M. intracellulare (M. intracellulare N-338) and with M. intracellulare (M. intracellulare N-345) was 0.5 µg/mL (≈ 1.23 µM) in each case. The “MNRC (%) mean ±S.E. 24 hours” value with reticulocytes (RC) (150 mg/kg, 24 hours after administration) came to 0.05 ± 0.03%. Moreover, the “MNRC (%) mean ±S.E. 48 hours” value in the series with reticulocytes (RC) (150 mg/kg, 48 hours after administration) turned out to be 0.12 ± 0.02%. Moreover, in the series with reticulocytes (RC) ((untreated control: 0.12±0.08)), the micronucleus induction result is recorded as “weak”.

As a reminder, the melting point is the temperature of the solid-liquid transition. With `COc1c(N2CCNC(CF)C2)c(F)cc2c(=O)c(C(=O)O)cn([C@@H]3C[C@@H]3F)c12` (stereo partly drawn) [Compd. 19, 6-Fluoro-1-[(1R,2S)-2-fluorocyclopropyl]-7-(3-fluoromethylpiperazin-1-yl)-1,4-dihydro-8-methoxy-4-oxoquinoline-3-carboxylic acid], the melting point was in the range of 153 to 156 °C.

Regarding `COCC1CN(c2c(F)cc3c(=O)c(C(=O)O)cn([C@@H]4C[C@@H]4F)c3c2OC)CCN1` (stereo partly drawn) [Compd. 21, 6-Fluoro-1-[(1R,2S)-2-fluorocyclopropyl]-1,4-dihydro-8-methoxy-7-(3-methoxymethylpiperazin-1-yl)-4-oxoquinoline-3-carboxylic acid], the melting point lay within 92 to 95 °C.

Regarding `COc1c(N2CCNC3(CC3)C2)c(F)cc2c(=O)c(C(=O)O)cn([C@@H]3C[C@@H]3F)c12` [Compd. 22, 7-{4,7-Diazaspiro[2.5]octan-7-yl}-6-fluoro-1-[(1R,2S)-2-fluorocyclopropyl]-1,4-dihydro-8-methoxy-4-oxoquinoline-3-carboxylic acid], the melting point was 164 to 167 °C (dec.).

`COc1c(C2CNC3(CCC3)CN2)c(F)cc2c(=O)c(C(=O)O)cn([C@@H]3C[C@@H]3F)c12` (stereo partly drawn) [Compd. 23, 7-{5,8-Diazaspiro[3.5]nonan-7-yl}-6-fluoro-1-[(1R,2S)-2-fluorocyclopropyl]-1,4-dihydro-8-methoxy-4-oxoquinoline-3-carboxylic acid]: the melting point was 138 to 140 °C (dec.).

The compound `COc1c(N2CCNC(C3CC3)C2)c(F)cc2c(=O)c(C(=O)O)cn([C@@H]3C[C@@H]3F)c12` (stereo partly drawn) [Compd. 24, 7-(3-Cyclopropylpiperazin-1-yl)-6-fluoro-1-[(1R,2S)-2-fluorocyclopropyl]-1,4-dihydro-8-methoxy-4-oxoquinoline-3-carboxylic acid] showed a melting point of 136 to 139 °C.

`COc1c(N2CCN3CCC2C3)c(F)cc2c(=O)c(C(=O)O)cn([C@@H]3C[C@@H]3F)c12` (stereo partly drawn) [Compd. 28, 7-{1,4-Diazabicyclo[3.2.1]octan-4-yl}-6-fluoro-1-[(1R,2S)-2-fluorocyclopropyl]-1,4-dihydro-8-methoxy-4-oxoquinoline-3-carboxylic acid]: the melting point was 195 to 198 °C (dec.).
